In ChEMBL document CHEMBL1138294, “Design and development of water-soluble curcumin conjugates as potential anticancer agents” (J Med Chem, 2007):

Assays:
[1] = tested on: PC-3; test: Cytotoxicity against human PC3 cells at 10 uM; type: functional
[2] = tested on: PC-3; test: Cytotoxicity against human PC3 cells; type: functional, cell-based
[3] = tested on: PC-3; test: Cytotoxicity against human PC3 cells at 20 uM; type: functional
[4] = tested on: LS174T; test: Cytotoxicity against human LS174T cells; type: functional, cell-based
[5] = tested on: BXPC-3; test: Cytotoxicity against human BxPC3 cells; type: functional, cell-based
[6] = tested on: MIA PaCa-2; test: Cytotoxicity against human MIA PaCa2 cells; type: functional, cell-based

COc1cc(/C=C/C(=O)CC(=O)/C=C/c2ccc(O)c(OC)c2)ccc1O [CURCUMIN]
Activity [1]: 65%
IC50 [2]: 12 µM
Activity [3]: 90%
IC50 [4]: 6.5 µM
IC50 [5]: 2.9 µM
IC50 [6]: 9 µM
